Reference: patent publication US20050014215A1, “Method and medium for the detecting/identifying microorganisms with esterase and/or r osidase and/or peptidase and/or sulfatase and/or phosphatase activity” (priority 2000, published 2005)

Tested on: Listeria innocua 36
Test: Colony coloration on fresh and stored media, Example 10 (6-chloro-3-indolyl-β-N-acetylglucosaminide, Columbia)
Assay type: cell-based
Parameters: key to intensity of coloration (arbitrary scale): 0: no activity; 0.1: trace of coloration; 0.5: very pale coloration; 1: distinct coloration of low intensity; 2: clear coloration of medium intensity; 3: intense coloration; 4: very intense coloration; —: absence of coloration or intensity; key to color: M: magenta; —: colorless
Protocol: Two stock solutions of substrate were prepared, one having a concentration of 50 g/l in DMF and the other having a concentration of 50 g/l in a mixture of DMF (40%) and Tween® 20 (60%). A volume corresponding to a final concentration of 175 mg/l of substrate was then added to a supercooled gelled medium, namely Columbia medium not supplemented with blood. […] After three weeks, six weeks, nine weeks and twelve weeks, two media like those described above were prepared for immediate use.
Microorganisms originating from the Applicant's collection were inoculated from a 0.5 McFarland suspension, by isolation in three quadrants, onto the two media prepared for immediate use and the two media stored at +4° C. The dishes were incubated at 37° C. for 48 hours. The colonies formed were examined visually after 24 and 48 hours of incubation. The coloration of these colonies and the intensity of this coloration were noted.

[1] = IT 24 h, fresh medium, DMF Tween 20, 6-week comparison
[2] = IT 24 h, fresh medium, DMF Tween 20, 9-week comparison
[3] = IT 24 h, fresh medium, DMF Tween 20, 12-week comparison
[4] = IT 24 h, fresh medium, DMF, 6-week comparison
[5] = IT 24 h, fresh medium, DMF, 9-week comparison
[6] = IT 24 h, fresh medium, DMF, 12-week comparison
[7] = IT 24 h, medium stored for 6 weeks at +4° C., DMF
[8] = IT 24 h, medium stored for 6 weeks at +4° C., DMF Tween 20
[9] = IT 24 h, medium stored for 9 weeks at +4° C., DMF
[10] = IT 24 h, medium stored for 9 weeks at +4° C., DMF Tween 20
[11] = IT 24 h, medium stored for 12 weeks at +4° C., DMF Tween 20
[12] = IT 48 h, fresh medium, DMF Tween 20, 6-week comparison
[13] = IT 48 h, fresh medium, DMF Tween 20, 9-week comparison
[14] = IT 48 h, fresh medium, DMF Tween 20, 12-week comparison
[15] = IT 48 h, fresh medium, DMF, 6-week comparison
[16] = IT 48 h, fresh medium, DMF, 9-week comparison
[17] = IT 48 h, fresh medium, DMF, 12-week comparison
[18] = IT 48 h, medium stored for 6 weeks at +4° C., DMF
[19] = IT 48 h, medium stored for 6 weeks at +4° C., DMF Tween 20
[20] = IT 48 h, medium stored for 9 weeks at +4° C., DMF
[21] = IT 48 h, medium stored for 9 weeks at +4° C., DMF Tween 20
[22] = IT 48 h, medium stored for 12 weeks at +4° C., DMF
[23] = IT 48 h, medium stored for 12 weeks at +4° C., DMF Tween 20

CC(=O)N[C@H]1[C@H](Oc2c[nH]c3cc(Cl)ccc23)O[C@H](CO)[C@@H](O)[C@@H]1O
color [1]: M | intensity of coloration (arbitrary scale) [1]: 2 | color [2]: M | intensity of coloration (arbitrary scale) [2]: 2 | color [3]: M | intensity of coloration (arbitrary scale) [3]: 2 | color [4]: M | intensity of coloration (arbitrary scale) [4]: 2 | color [5]: M | intensity of coloration (arbitrary scale) [5]: 2 | color [6]: M | intensity of coloration (arbitrary scale) [6]: 2 | color [7]: M | intensity of coloration (arbitrary scale) [7]: 1 | color [8]: M | intensity of coloration (arbitrary scale) [8]: 2 | color [9]: M | intensity of coloration (arbitrary scale) [9]: 0.5 | color [10]: M | intensity of coloration (arbitrary scale) [10]: 1.5 | color (IT 24 h, medium stored for 12 weeks at +4° C., DMF): M | color [11]: M | intensity of coloration (arbitrary scale) [11]: 1 | color [12]: M | intensity of coloration (arbitrary scale) [12]: 3 | color [13]: M | intensity of coloration (arbitrary scale) [13]: 3 | color [14]: M | intensity of coloration (arbitrary scale) [14]: 3 | color [15]: M | intensity of coloration (arbitrary scale) [15]: 3 | color [16]: M | intensity of coloration (arbitrary scale) [16]: 3 | color [17]: M | intensity of coloration (arbitrary scale) [17]: 3 | color [18]: M | intensity of coloration (arbitrary scale) [18]: 2 | color [19]: M | intensity of coloration (arbitrary scale) [19]: 3 | color [20]: M | intensity of coloration (arbitrary scale) [20]: 1 | color [21]: M | intensity of coloration (arbitrary scale) [21]: 2.5 | color [22]: M | intensity of coloration (arbitrary scale) [22]: 0.5 | color [23]: M | intensity of coloration (arbitrary scale) [23]: 2.5
